Patent US12178859B2, “Anti inflammatory composition” (WAKO FILTER TECHNOLOGY CO., LTD., priority 2019, dated 2024)

Tests used:
[1] = test system: canine neutrophil suspension; assay: Neutrophil adhesion test with LPS-activated canine neutrophils (96-well plate, crystal violet, OD620 and microscopy); type: cell-based, dogs; conditions: 0.2 mg/ml lysozyme-chitosan complex and/or 0.4 mg/ml decanoic acid, magnification 40 times, FIG. 3B to 3D
Experimental: (§1) Neutrophils were collected from blood. Specifically, neutrophils were isolated from whole blood collected from healthy humans or dogs using Polymorphprep (Cosmo Bio). The separated neutrophil samples were centrifuged at 2000 rpm for about 40 minutes, then the supernatant was removed, and the residue was transferred to RPMI (SIGMA) medium supplemented with 10-mass % fetal bovine serum (Tissue Culture Biologicals, USA) and diluted to obtain a cell count of 4×10^6 cells/ml, preparing human and canine neutrophil suspensions, respectively. […] The neutrophil adhesion rate was determined as follows. The value obtained by quantifying the activated neutrophils adhered to the wells in the control without containing lysozyrne-chitosan complex or decanoic acid was set as 100%, and compared with the value obtained by quantifying the activated neutrophils adhered to the wells in the same way for the test substances in each Example and Comparative Example. Neutrophil Adhesion Rate (%)=[Quantitative Value of Adhesive Activated Neutrophils in Each Example and Comparative Example]/[Quantitative Value of Adhesive Activated Neutrophils in Control]×100 In the present invention, the ability to suppress the neutrophil adhesive reaction was evaluated by the following procedure. […]

[2] = test system: human neutrophil suspension; assay: Neutrophil adhesion test with LPS-activated human neutrophils (96-well plate, crystal violet, OD620); type: cell-based; conditions: human neutrophils activated with E. coli lipopolysaccharide, 1 hour at 37° C.; control = 100%; FIG. 2A / FIG. 2B
Experimental: as §1

SMILES: CCCCCCCCCC(=O)O [decanoic acid]
- distribution of adherent neutrophils stained with crystal violet (photomicrograph) [1]: widely distributed
- neutrophil adhesion rate (%) as the concentration of test substance increases [2]: did not decrease
